The record followed here is US6608070B1, “2,3-substituted indole compounds as anti-inflammatory and analgesic agents” (priority 1999, dated 2003).

The structures appear in SMILES notation.

`O=C(O)Cc1c(C(=O)c2cc3ccccc3cn2)[nH]c2ccc(Cl)cc12` [Example 221, [5-Chloro-2-(isoquinoline-3-carbonyl)-1H-indol-3-yl]acetic Acid] came in with a melting point of 239 to 240 °C. Next, `O=C(O)Cc1c(C(=O)c2cc3ccccc3cn2)[nH]c2cc(Cl)ccc12` [Example 223, [6-Chloro-2-(isoquinoline-3-carbonyl)-1H-indol-3-yl]acetic Acid]: 236 to 237 °C; `Cc1cc(C(=O)c2[nH]c3ccc(Cl)cc3c2CC(=O)O)no1` [Example 225, [5-Chloro-2-(5-methylisoxazole-3-carbonyl)-1H-indol-3-yl]acetic Acid]: 253 to 255 °C. Next, `Cc1cc(C(=O)c2[nH]c3cc(Cl)ccc3c2CC(=O)O)no1` [Example 227, [6-Chloro-2-(5-methylisoxazole-3-carbonyl)-1H-indol-3-yl]acetic Acid]: 227 to 229 °C; `Cc1nnsc1C(=O)c1[nH]c2ccc(Cl)cc2c1CC(=O)O` [Example 229, [5-Chloro-2-(4-methyl-1,2,3-thiadiazole-5-carbonyl)-1H-indol-3-yl]acetic Acid]: 229 to 230 °C; `Cc1nnsc1C(=O)c1[nH]c2cc(Cl)ccc2c1CC(=O)O` [Example 231, [6-Chloro-2-(4-methyl-1,2,3-thiadiazole-5-carbonyl)-1H-indol-3-yl]acetic Acid]: 215 to 216 °C.

As to `Cc1cnc(C(=O)c2[nH]c3ccc(Cl)cc3c2CC(=O)O)s1` [Example 233, [5-Chloro-2-(5-methylthiazole-2-carbonyl)-1H-indol-3-yl]acetic Acid], the melting point lay within 231 to 233 °C. Next, `Cc1cnc(C(=O)c2[nH]c3cc(Cl)ccc3c2CC(=O)O)s1` [Example 235, [6Chloro-2-(5-methylthiazole-2-carbonyl)-1H-indol-3-yl]acetic Acid]: 225 to 226 °C; `O=C(O)Cc1c(C(=O)c2cccs2)[nH]c2cc(Cl)ccc12` [Example 236, [6-Chloro-2-(2-thienyl)carbonylindol-3-yl]acetic Acid]: 177 to 178 °C; `CC(C)(O)c1ccoc1C(=O)c1[nH]c2cc(Cl)ccc2c1CC(=O)O` [Example 238, [6-Chloro-2-[3-(1-hydroxy-1-methylethyl)-2-furoyl]1H-indol-3-yl]acetic Acid]: 229 to 230 °C. As for `COCc1ccoc1C(=O)c1[nH]c2cc(Cl)ccc2c1CC(=O)O` [Example 240, [6-Chloro-2-[3-methoxymethyl-2-furoyl]-1H-indol-3-yl]acetic Acid], the melting point lay within 212 to 213 °C. The molecule `Cc1ccnc(C(=O)c2[nH]c3ccc(Cl)cc3c2CC(=O)NCCO)c1` [Example 269, [5-Chloro-2-(4-methylpyridine-2-carbonyl)-1H-indol-3-yl]-N-(2-hydroxyethyl)acetamide] showed a melting point of 195.9 °C. The molecule `Cc1ccnc(C(=O)c2[nH]c3ccc(Cl)cc3c2CC(=O)NCCN)c1` [Example 272, [5-Chloro-2-(4-methylpyridine-2-carbonyl)-1H-indol-3-yl]-N-(2-aminoethyl)acetamide] returned a melting point of 165.7 °C. For `CCOC(=O)C=Cc1ccc(Cl)cc1NS(=O)(=O)c1ccc(C)cc1` [Example 293, 3-[4-Chloro-2-(toluene-4-sulfonylamino)-phenyl]-acrylic Acid Ethyl Ester] the value was 124 to 127 °C; for `CCOC(=O)C=Cc1ccc(Cl)cc1N(CC(=O)c1ccc(Cl)cc1)S(=O)(=O)c1ccc(C)cc1` [Example 295, 3-{4-Chloro-2-[[2-(4-chloro-phenyl)-2-oxo-ethyl]-(toluene-4-sulfonyl)-amino]-phenyl}-acrylic Acid Ethyl Ester], 162 to 165 °C.

`CCOC(=O)Cc1c(C(=O)c2ccc(Cl)cc2)[nH]c2cc(Cl)ccc12` [Example 297, [6-Chloro-2-(4-chloro-benzoyl)-1H-indol-3-yl]-acetic Acid Ethyl Ester]: the melting point was in the range of 186 to 188 °C.
